Results reported in patent US20250163089A1, “Branched Molecules for Redox Flow Batteries” (XL Batteries, Inc., priority 2023, published 2025).

Legend:
[1] = solvent not stated
[2] = Viscosity of the solution; type: physicochemical; details: at a concentration of […]

Compound	maximum concentration dissolved, after which solid precipitated from the solution [1]	viscosity [2]
O=C(O)CCC[c-]1cccc1.[Fe+2].c1cc[cH-]c1 [4-ferrocene butyric acid]	0.251 M	–
N-(4-ferrocenylbutanoyl)-L-glutamate	–	3.7 cP
